Assay [1] deals with S. aureus Newman.
For assay [2], the system named is ΔvraSR/S. aureus Newman. Conditions: for MIC: ΔvraSR/S. aureus Newman, 16-24 h, 37°C, two-fold dilution series, performed twice.
For assay [3], the system named is S. aureus Newman. As to the kind of experiment: qRT-PCR of gene induction in treated wild-type cells. The class given is cell-based, Staphylococcus aureus. To be noted: 10 min, 5 × MIC (temporin-L-NH2 subinhibitory 2 μg/ml, pentaglycine 20 μg/ml), treated/untreated, mean of three experiments (SD).
The test system of assay [4] is ΔvraDE/S. aureus Newman. Conditions: Mueller-Hinton broth; for MIC: ΔvraDE/S. aureus Newman, 16-24 h, 37°C, two-fold dilution series, performed twice.
Assay [5] concerns S. aureus RN4220. Conditions: Mueller-Hinton broth, 16-24 h, 37°C, two-fold dilution series, performed twice.
Assay [6] has as its system ΔvraSR/ RN4220. To be noted: Mueller-Hinton broth, 16-24 h, 37°C, two-fold dilution series, performed twice.
The subject of assay [7] is ΔvraDE/ RN4220. Conditions: Mueller-Hinton broth, 16-24 h, 37°C, two-fold dilution series, performed twice.
The test system of assay [8] is wild-type S. aureus Newman. The assay is classed as cell-based, Staphylococcus aureus.
The test system of assay [9] is S. aureus RN4220. Briefly: microbe, parasite or virus in culture. Conditions: Staphylococcus aureus.
Assay [10] relates to ΔvraDE/S. aureus Newman. Briefly: microbe, parasite or virus in culture. To be noted: Staphylococcus aureus.
The test system of assay [11] is ΔvraSR/ RN4220. Briefly: microbe, parasite or virus in culture. Conditions: Staphylococcus aureus.
The subject of assay [12] is ΔvraSR/S. aureus Newman. As to the kind of experiment: microbe, parasite or virus in culture. Conditions: Staphylococcus aureus.
Assay [13] has as its system ΔvraDE/ RN4220. Briefly: microbe, parasite or virus in culture. Conditions: Staphylococcus aureus.
Setting [14] is: S. aureus Newman, Mueller-Hinton broth, 16-24 h, 37°C, two-fold dilution series, performed twice.

In brackets after ≈: the same amount, converted by molar mass. Where two headings read alike, the source gives them in different places. Where a SMILES comes first, the peptide text is derived from it. Bridges are numbered along the chain shown (N, C = ends). Where no end group is shown, it is not given here. [ ]: non-standard residue; d: D form. The star is where a group is joined. Ileψ(thiazoline)Cys = CC[C@H](C)[C@H](N)C1=N[C@H](C(=O)*)CS1; dOrn = NCCC[C@@H](N)C(=O)O

`CC[C@H](C)[C@H](N)C1=N[C@H](C(=O)N[C@@H](CC(C)C)C(=O)N[C@H](CCC(=O)O)C(=O)N[C@H](C(=O)N[C@H]2CCCCNC(=O)[C@H](CC(N)=O)NC(=O)[C@@H](CC(=O)O)NC(=O)[C@H](Cc3cnc[nH]3)NC(=O)[C@@H](Cc3ccccc3)NC(=O)[C@H]([C@@H](C)CC)NC(=O)[C@@H](CCCN)NC2=O)[C@@H](C)CC)CS1` [Bacitracin] ({Ileψ(thiazoline)Cys}-L[dE]IK[dOrn]I[dF]H[dD]N; lactam 4-C): the MIC is 20 µg/mL (≈ 14.1 µM) against S. aureus Newman [1] (setting [14]); 5 µg/mL (≈ 3.51 µM) against ΔvraSR/S. aureus Newman [2] (Mueller-Hinton broth); 2.5 µg/mL (≈ 1.76 µM) against ΔvraDE/S. aureus Newman [4]; 20 µg/mL (≈ 14.1 µM) in the assay with S. aureus RN4220 [5]; 5 µg/mL (≈ 3.51 µM) with ΔvraSR/ RN4220 [6]; 2.5 µg/mL (≈ 1.76 µM) against ΔvraDE/ RN4220 [7]. Also, the “Difference in MIC (increased sensitivity), ΔvraSR mutant versus wild-type” value with ΔvraSR/S. aureus Newman [2] (Mueller-Hinton broth) was 4 fold. Further, the entries for the “Fold induction SA0205” value in the assay with S. aureus Newman [3] and with S. aureus Newman [3] (listed as bacitracin) were 51.4 (0.8) fold and 30-50 fold, respectively. For the same molecule, the “Fold induction groEL” value in the assay with S. aureus Newman [3] is listed as 3.6 (0.1) fold. Besides, the “Fold induction prsA” value is on record as 27.9 (4.5) fold with S. aureus Newman [3] and 30-50 fold in the assay with S. aureus Newman [3] (listed as bacitracin). Further, the “Fold induction vraD” value with S. aureus Newman [3] was 467.5 (15.3) fold; in the assay with S. aureus Newman [3] (listed as bacitracin), roughly 500 fold. In the assay with ΔvraDE/S. aureus Newman [4], the “Difference in MIC, ΔvraDE mutant versus wild-type” value is “about 10 fold”.
In the case of `O=C(O)CN(CCOCCOCCN(CC(=O)O)CC(=O)O)CC(=O)O` [EGTA], the “Growth of wild-type strain in the presence of the antimicrobial” value (“Growth of wild-type strain” for short) in [8] is reported as “grew significantly”.
For `CN[C@H](CC(C)C)C(=O)N[C@H]1C(=O)N[C@@H](CC(N)=O)C(=O)N[C@H]2C(=O)N[C@H]3C(=O)N[C@H](C(=O)N[C@H](C(=O)O)c4cc(O)cc(O)c4-c4cc3ccc4O)[C@H](O)c3ccc(c(Cl)c3)Oc3cc2cc(c3O[C@@H]2O[C@H](CO)[C@@H](O)[C@H](O)[C@H]2O[C@H]2C[C@](C)(N)[C@H](O)[C@H](C)O2)Oc2ccc(cc2Cl)[C@H]1O` [Vancomycin], the MIC was 1 µg/mL (≈ 0.69 µM) against S. aureus RN4220 [9]; 1 µg/mL (≈ 0.69 µM) with S. aureus Newman [1]; 1 µg/mL (≈ 0.69 µM) in the assay on ΔvraDE/S. aureus Newman [10]; 0.5 µg/mL (≈ 0.345 µM) against ΔvraSR/ RN4220 [11]; 1 µg/mL (≈ 0.69 µM) against ΔvraSR/S. aureus Newman [12]; 1 µg/mL (≈ 0.69 µM) against ΔvraDE/ RN4220 [13].
In the case of `CO/N=C(\C(=O)N[C@@H]1C(=O)N2C(C(=O)O)=C(COC(C)=O)CS[C@H]12)c1csc(N)n1` [cefotaxime], the “Growth of wild-type strain” value in assay [8] was “grew significantly”.
Take `CN(C)CCCN1c2ccccc2Sc2ccc(Cl)cc21` [chlorpromazine]: the “Growth of wild-type strain” value in assay [8] was “grew significantly”.
On to KNLRRIIRKIIHIIKKYG-OH [Ovispirin-1], for which the MIC against S. aureus Newman [1] (setting [14]), in the assay with ΔvraSR/S. aureus Newman [2] (Mueller-Hinton broth), in the assay on ΔvraDE/S. aureus Newman [4], against S. aureus RN4220 [5], in the assay on ΔvraSR/ RN4220 [6] and against ΔvraDE/ RN4220 [7] was 20 µg/mL throughout. For the same molecule, the “Effect of the ΔvraSR mutation on sensitivity” value in the assay on ΔvraSR/S. aureus Newman [2] (MIC, 100%, 50% (LL-37, nisin, Pep5) or 25% (hBD3) Mueller-Hinton broth) is reported as “did not affect the sensitivity”. The “Fold induction SA0205” value in the assay on S. aureus Newman [3] is reported as 5.1 (1.0) fold. For the same molecule, the “Fold induction groEL” value in the assay with S. aureus Newman [3] is reported as 2.5 (0.5) fold. Further, in the assay with S. aureus Newman [3], the “Fold induction prsA” value is recorded as 7.2 (1.6) fold. Further, in the assay with S. aureus Newman [3], the “Fold induction vraD” value was 3.7 (0.5) fold.

(Values after publication PMC2748101, “Transcriptome analysis of the responses of Staphylococcus aureus to antimicrobial peptides and characterization of the roles of vraDE and vraSR in antimicrobial resistance” (BMC Genomics, 2009).)
